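All cell lines were grown in 96-well plates and treated with compound for 48 hours. The concentration for full growth arrest is given as TGI.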
Tests used:
Assay in all cases: inhibition of tumour cell growth, NCI panel, 48 h
OVCAR-8 ovarian = test system: OVCAR-8 ovarian
HS 578T breast = test system: HS 578T breast
SNB-19 CNS = test system: SNB-19 CNS
U251 CNS = test system: U251 CNS
MCF7 breast = test system: MCF7 breast
NCI-H460 lung = test system: NCI-H460 lung
HL-60(TB) leukemia = test system: HL-60(TB) leukemia
OVCAR-5 ovarian = test system: OVCAR-5 ovarian
HCC-2998 colon = test system: HCC-2998 colon
A549 NSCLC = test system: A549 NSCLC

Structure (SMILES)	TGI (OVCAR-8 ovarian) [µM]	TGI (HS 578T breast) [µM]	TGI (SNB-19 CNS) [µM]	TGI (U251 CNS) [µM]	TGI (MCF7 breast) [µM]	TGI (NCI-H460 lung) [µM]	TGI (HL-60(TB) leukemia) [µM]	TGI (OVCAR-5 ovarian) [µM]	TGI (HCC-2998 colon) [µM]	TGI (A549 NSCLC) [µM]
C/C(=N\NC(=S)NC(C)(C)C)c1nc2ncccc2[nH]1	> 100	> 30.2	> 90.5	> 100	> 100	55	> 21.6	> 21.7	> 68.6	43.4
COc1ccc(C2C(=O)c3ccc(OC)cc3OC2c2cccnc2)cc1 (stereo not given)	> 100	> 100	> 100	> 100	> 100	> 100	> 100	> 100	> 100	> 100
O=C1/C(=C\c2cccc(Oc3ccccc3)c2)SC(c2ccccc2)N1c1cc(Cl)ccc1Cl (stereo not given)	57	75.9	> 100	> 100	> 100	> 100	48.1	> 100	> 100	> 100
CCCCCCCCCCCCCCCCNc1nc(=O)n(C2OC(C)C(O)C2O)cc1F (stereo not given)	52.6	56.3	39.7	54.4	33	33.9	75.1	36.7	31	48
CC(C)Oc1cccc(N2C(CCc3c[nH]c4ccc(Br)cc34)=NS(=O)(=O)c3cnccc32)c1	> 100	> 100	> 100	> 100	> 100	> 100	> 100	> 100	> 100	> 100
Cc1ccc(S(=O)(=O)OCCN(CCOS(=O)(=O)c2ccc(C)cc2)c2ccc(C=O)cc2)cc1	> 100	> 100	> 100	71.5	92.9	48.6	> 100	64.8	85.5	> 100
BrC1(c2ccccc2)C[n+]2c(-c3ccccc3)cc(-c3ccccc3)cc2-c2ccccc21 (stereo not given)	6.37	0.872	17.5	1.2	0.735	6.99	0.538	4.1	0.742	9.77
Clc1[nH]nc2ccccc12	> 100	> 100	> 100	> 100	> 100	> 100	> 100	> 100	> 100	> 100
CCNC(=S)N/N=C(/C)c1cccc(/C(C)=N\NC(=S)NCC)n1	16.9	> 96.6	> 100	58	31.2	12.5	7.9	> 72.8	> 96.7	> 82.9
COc1ccc(S(=O)(=O)NC(CCC(=O)NC(N)=O)C(=O)NC(N)=O)cc1 (stereo not given)	> 100	> 100	> 100	> 100	> 100	> 100	> 100	> 100	> 100	> 100
COC1=C(OC)C(=O)C(Cc2c(Cl)nc3sccn23)=C(C)C1=O	26.2	50.3	28.1	25.1	26.8	25.4	6.98	31.7	32.1	25.1
[N-]=[N+]=CC(=O)C1CCN(c2ccccc2)C1=O (stereo not given)	> 10	> 10	> 10	> 10	> 10	> 10	> 10	> 10	> 10	> 10
CC(=O)Oc1cc2c(cc1OCC(F)(F)F)[C@H]1CC[C@]3(C)[C@@H](OC(C)=O)CC[C@H]3[C@@H]1CC2=O	57	50.4	> 67	> 74.1	> 75.6	> 100	34.7	44.5	67.3	77.7
CC1=NC(=N)N=C(C)C1N=Nc1ccc2nc(C)[nH]c2c1 (stereo not given)	> 100	> 100	> 100	> 100	> 100	> 100	> 100	> 100	> 100	> 100
Cc1cc2nc(N3C(=O)/C(=C/Cc4ccco4)N=C3c3ccccc3)sc2cc1C	> 100	> 100	> 100	> 100	40.4	> 100	46.1	> 100	55.7	> 100
CC(C)OC(=O)C(NC(=O)C(CC(=O)OCc1ccccc1)NC(=O)OCc1ccccc1)NC(=O)C1C(C)(C)CCC1(C)C (stereo not given)	4.19	23.5	16.1	4.68	28.4	31.6	> 40.4	> 55.6	> 56.5	5.07
COCc1cc2c(s1)C(=O)C1=C(C2=O)C2(C=C(Br)C(=O)C(Br)=C2)CCN1	14.8	30.6	35.5	23.7	28.1	14.5	16.3	29.5	24.8	19.4
